{"source": "the supplement of paper PMC8882468", "experiment_in_all_cases": "CTG-3D luminescence at 96 h relative to day-0 seeding control (ratio to day 0); higher = more growth / less cytotoxicity; PDxO 3D drug screen, 96 h, CTG-3D normalised to day-0 seeding control.", "key": {"HCI-002": {"tested_on": "HCI-002 (organoid from a triple-negative breast cancer xenograft)"}, "HCI-012": {"tested_on": "HCI-012 (organoid from a breast cancer xenograft)"}, "HCI-024": {"tested_on": "HCI-024 (organoid from a breast cancer xenograft)"}}}
{"smiles": "C[C@]12CC[C@@H]3c4ccc(O)cc4C[C@@H](CCCCCCCCC[S+]([O-])CCCC(F)(F)C(F)(F)F)[C@H]3[C@@H]1CC[C@@H]2O", "note": "(some centres not stated) [fulvestrant]", "values": [{"measurement": "CTG-3D luminescence at 96 h", "setting": "HCI-002; 1 µM, days in culture: 62", "result": 2.65}, {"measurement": "CTG-3D luminescence at 96 h", "setting": "HCI-002; 1 µM, days in culture: 82", "result": 2.79}, {"measurement": "CTG-3D luminescence at 96 h", "setting": "HCI-002; 1 µM, days in culture: 91", "result": 2.74}, {"measurement": "CTG-3D luminescence at 96 h", "setting": "HCI-002; 1 µM, days in culture: 191", "result": 3.38}, {"measurement": "CTG-3D luminescence at 96 h", "setting": "HCI-002; 1 µM, days in culture: 209", "result": 2.28}, {"measurement": "CTG-3D luminescence at 96 h", "setting": "HCI-002; 1 µM, days in culture: 227", "result": 4.77}, {"measurement": "CTG-3D luminescence at 96 h", "setting": "HCI-002; 10 µM, days in culture: 62", "result": 3.11}, {"measurement": "CTG-3D luminescence at 96 h", "setting": "HCI-002; 10 µM, days in culture: 82", "result": 2.61}, {"measurement": "CTG-3D luminescence at 96 h", "setting": "HCI-002; 10 µM, days in culture: 91", "result": 3.39}, {"measurement": "CTG-3D luminescence at 96 h", "setting": "HCI-002; 10 µM, days in culture: 191", "result": 2.54}, {"measurement": "CTG-3D luminescence at 96 h", "setting": "HCI-002; 10 µM, days in culture: 209", "result": 1.83}, {"measurement": "CTG-3D luminescence at 96 h", "setting": "HCI-002; 10 µM, days in culture: 227", "result": 5}, {"measurement": "CTG-3D luminescence at 96 h", "setting": "HCI-002; 100 µM, days in culture: 62", "result": 2.61}, {"measurement": "CTG-3D luminescence at 96 h", "setting": "HCI-002; 100 µM, days in culture: 82", "result": 2.5}, {"measurement": "CTG-3D luminescence at 96 h", "setting": "HCI-002; 100 µM, days in culture: 91", "result": 2.65}, {"measurement": "CTG-3D luminescence at 96 h", "setting": "HCI-002; 100 µM, days in culture: 191", "result": 2.67}, {"measurement": "CTG-3D luminescence at 96 h", "setting": "HCI-002; 100 µM, days in culture: 209", "result": 2.35}, {"measurement": "CTG-3D luminescence at 96 h", "setting": "HCI-002; 100 µM, days in culture: 227", "result": 4.58}, {"measurement": "CTG-3D luminescence at 96 h", "setting": "HCI-002; 625 fM, days in culture: 62", "result": 2.86}, {"measurement": "CTG-3D luminescence at 96 h", "setting": "HCI-002; 625 fM, days in culture: 82", "result": 2.6}, {"measurement": "CTG-3D luminescence at 96 h", "setting": "HCI-002; 625 fM, days in culture: 91", "result": 3.54}, {"measurement": "CTG-3D luminescence at 96 h", "setting": "HCI-002; 625 fM, days in culture: 191", "result": 2.7}, {"measurement": "CTG-3D luminescence at 96 h", "setting": "HCI-002; 625 fM, days in culture: 209", "result": 2.47}, {"measurement": "CTG-3D luminescence at 96 h", "setting": "HCI-002; 625 fM, days in culture: 227", "result": 5.27}, {"measurement": "CTG-3D luminescence at 96 h", "setting": "HCI-012; 12.5 pM, days in culture: 143", "result": 2.28}, {"measurement": "CTG-3D luminescence at 96 h", "setting": "HCI-012; 12.5 pM, days in culture: 162", "result": 2.65}, {"measurement": "CTG-3D luminescence at 96 h", "setting": "HCI-012; 12.5 pM, days in culture: 201", "result": 2.77}, {"measurement": "CTG-3D luminescence at 96 h", "setting": "HCI-012; 0.00025 µM, days in culture: 143", "result": 2.33}, {"measurement": "CTG-3D luminescence at 96 h", "setting": "HCI-012; 0.00025 µM, days in culture: 162", "result": 2.28}, {"measurement": "CTG-3D luminescence at 96 h", "setting": "HCI-012; 0.00025 µM, days in culture: 201", "result": 2.3}, {"measurement": "CTG-3D luminescence at 96 h", "setting": "HCI-012; 0.005 µM, days in culture: 143", "result": 2.23}, {"measurement": "CTG-3D luminescence at 96 h", "setting": "HCI-012; 0.005 µM, days in culture: 162", "result": 1.8}, {"measurement": "CTG-3D luminescence at 96 h", "setting": "HCI-012; 0.005 µM, days in culture: 201", "result": 1.52}, {"measurement": "CTG-3D luminescence at 96 h", "setting": "HCI-012; 0.1 µM, days in culture: 143", "result": 2.41}, {"measurement": "CTG-3D luminescence at 96 h", "setting": "HCI-012; 0.1 µM, days in culture: 162", "result": 3.05}, {"measurement": "CTG-3D luminescence at 96 h", "setting": "HCI-012; 0.1 µM, days in culture: 201", "result": 1.85}, {"measurement": "CTG-3D luminescence at 96 h", "setting": "HCI-012; 1 µM, days in culture: 143", "result": 2.43}, {"measurement": "CTG-3D luminescence at 96 h", "setting": "HCI-012; 1 µM, days in culture: 162", "result": 2.77}, {"measurement": "CTG-3D luminescence at 96 h", "setting": "HCI-012; 1 µM, days in culture: 201", "result": 2.21}, {"measurement": "CTG-3D luminescence at 96 h", "setting": "HCI-012; 10 µM, days in culture: 143", "result": 2.43}, {"measurement": "CTG-3D luminescence at 96 h", "setting": "HCI-012; 10 µM, days in culture: 162", "result": 3.17}, {"measurement": "CTG-3D luminescence at 96 h", "setting": "HCI-012; 10 µM, days in culture: 201", "result": 1.48}, {"measurement": "CTG-3D luminescence at 96 h", "setting": "HCI-012; 100 µM, days in culture: 143", "result": 2.25}, {"measurement": "CTG-3D luminescence at 96 h", "setting": "HCI-012; 100 µM, days in culture: 162", "result": 2.71}, {"measurement": "CTG-3D luminescence at 96 h", "setting": "HCI-012; 100 µM, days in culture: 201", "result": 2.1}, {"measurement": "CTG-3D luminescence at 96 h", "setting": "HCI-012; 625 fM, days in culture: 143", "result": 1.92}, {"measurement": "CTG-3D luminescence at 96 h", "setting": "HCI-012; 625 fM, days in culture: 162", "result": 2.92}, {"measurement": "CTG-3D luminescence at 96 h", "setting": "HCI-012; 625 fM, days in culture: 201", "result": 1.53}, {"measurement": "CTG-3D luminescence at 96 h", "setting": "HCI-024; 12.5 pM, days in culture: 105", "result": 1.45}, {"measurement": "CTG-3D luminescence at 96 h", "setting": "HCI-024; 12.5 pM, days in culture: 122", "result": 2.08}, {"measurement": "CTG-3D luminescence at 96 h", "setting": "HCI-024; 12.5 pM, days in culture: 163", "result": 1.83}, {"measurement": "CTG-3D luminescence at 96 h", "setting": "HCI-024; 0.00025 µM, days in culture: 105", "result": 1.55}, {"measurement": "CTG-3D luminescence at 96 h", "setting": "HCI-024; 0.00025 µM, days in culture: 122", "result": 2.51}, {"measurement": "CTG-3D luminescence at 96 h", "setting": "HCI-024; 0.00025 µM, days in culture: 163", "result": 1.9}, {"measurement": "CTG-3D luminescence at 96 h", "setting": "HCI-024; 0.005 µM, days in culture: 105", "result": 1.32}, {"measurement": "CTG-3D luminescence at 96 h", "setting": "HCI-024; 0.005 µM, days in culture: 122", "result": 2.43}, {"measurement": "CTG-3D luminescence at 96 h", "setting": "HCI-024; 0.005 µM, days in culture: 163", "result": 1.55}, {"measurement": "CTG-3D luminescence at 96 h", "setting": "HCI-024; 0.1 µM, days in culture: 105", "result": 1.36}, {"measurement": "CTG-3D luminescence at 96 h", "setting": "HCI-024; 0.1 µM, days in culture: 122", "result": 1.84}, {"measurement": "CTG-3D luminescence at 96 h", "setting": "HCI-024; 0.1 µM, days in culture: 163", "result": 2.47}, {"measurement": "CTG-3D luminescence at 96 h", "setting": "HCI-024; 1 µM, days in culture: 105", "result": 1.34}, {"measurement": "CTG-3D luminescence at 96 h", "setting": "HCI-024; 1 µM, days in culture: 122", "result": 1.77}, {"measurement": "CTG-3D luminescence at 96 h", "setting": "HCI-024; 1 µM, days in culture: 163", "result": 2.05}, {"measurement": "CTG-3D luminescence at 96 h", "setting": "HCI-024; 10 µM, days in culture: 105", "result": 2.02}, {"measurement": "CTG-3D luminescence at 96 h", "setting": "HCI-024; 10 µM, days in culture: 122", "result": 2.65}, {"measurement": "CTG-3D luminescence at 96 h", "setting": "HCI-024; 10 µM, days in culture: 163", "result": 1.88}, {"measurement": "CTG-3D luminescence at 96 h", "setting": "HCI-024; 100 µM, days in culture: 105", "result": 1.67}, {"measurement": "CTG-3D luminescence at 96 h", "setting": "HCI-024; 100 µM, days in culture: 122", "result": 1.86}, {"measurement": "CTG-3D luminescence at 96 h", "setting": "HCI-024; 100 µM, days in culture: 163", "result": 2.09}, {"measurement": "CTG-3D luminescence at 96 h", "setting": "HCI-024; 625 fM, days in culture: 105", "result": 1.87}, {"measurement": "CTG-3D luminescence at 96 h", "setting": "HCI-024; 625 fM, days in culture: 122", "result": 2.53}, {"measurement": "CTG-3D luminescence at 96 h", "setting": "HCI-024; 625 fM, days in culture: 163", "result": 1.91}]}
